The values below come from patent US11166894B2, “Shampoo compositions comprising a chelant” (The Procter & Gamble Company, priority 2016, dated 2021).

Data set [1] can be described thus: Copper on hair after repeat shampoo wash cycles (ICP-OES), versus shampoo without chelant. To be noted: for reduces copper by: shampoo composition containing 0.1 wt % chelant, 20 cleaning cycles, compared to shampoo without the chelant; for reduction/removal of copper on hair compared to control shampoo (in words): 20 shampoo cycles, clarifying shampoo; for Copper Removing Performance from Shampoo: clarifying shampoo containing the chelant, 20 cycles, copper content of hair compared to shampoo without the chelant; for reduction/removal of copper on hair compared to shampoo without chelant (in words): 10 shampoo cycles. How it is done:
The copper removing performance of the shampoo composition is determined by treating hair with clarifying shampoo containing the corresponding chelant for 20 cycles and comparing the copper content of the hair compared to the same treatment using shampoo without the chelant.
(§1) All testing are performed on colored hair switches (see Method of Measurement of Copper on Hair below) weighing approximately […] and having a length of approximately 6 inches. The hair switches are commercially available from IHIP (International Hair Importers). Three hair switches per sampoo composition are used. An amount of […] of shampoo is spread via a syringe onto separate hair switch. That is, the dosage is 0.10 g of shampoo per g of hair. Each application consists of adding shampoo to the hair, milking for 30 seconds followed by rinsing for 30 seconds. Shampoo is then reapplied (0.1 g/g), milked for 30 seconds and rinsed for 30 seconds. Excess water is squeezed from the hair switches and left to air dry or treated with a rinse-off conditioner and/or a leave-on treatment composition. This protocol is repeated for a number of times/cycles (as indicated in the tables below, which describe the details of hair treatments).
The following test method is used to assess the ability of the compositions and regimens to remove copper from the hair and to inhibit copper deposition onto the hair.
Hair switches are colored once with an oxidative hair colorant. An extra blonde shade is used for the testing. The hair switches are washed for 10 or 20 repeat wash cycles in tap water containing 7 grains per gallon water hardness (Ca/Mg) and 0.06 μg/g copper ions. Each wash cycle consists of two applications of 0.1 g/g a shampoo to the hair switches. Each application consists of adding shampoo to the hair, milking for 30 secs followed by rinsing for 30 secs. Shampoo is then reapplied 0.1 g/g, milked for 30 secs, rinsed for 30 secs and then dried in a heat box (60° C.) until dry.
Samples of 100 mg of hair are digested overnight with 2 ml of high purity concentrated nitric acid. The digestive mixture also contains 150 μL of 100 μg/g Yttrium internal standard (Inorganic Ventures, Christianburg, Va., USA). Following digestion, samples are heated to 70-80° C. for one hour, cooled to room temperature and diluted to 15 mL with deionized water. Copper content of the hair switches is determined by inductively coupled plasma atomic spectroscopy (ICP-OES)). For each leg, 3 different samples are analyzed.
In order to minimize the variability of the resulting copper content on hair that is related to (a) lot-to-lot viariability due to hair switches and (b) day-to-day variability of the water used during shampoo and conditioner treatments, a single lot of hair switches is used for each experimental series and a separate control experiment/treatment is run for each experimental series (see below).

Data set [2] in a line: log P, n-octanol/water partition coefficient. In kind it is physicochemical. The source says: The term log P is the n-octanol/water partition coefficients of the material.
The copper to be removed is inside the hair and the chelant needs to penetrate inside hair and form a strong copper-chelant complex. This copper-chelant complex needs to be water soluble and thus easily removed during the rinsing process. […] These are log P, the octanol/water partitioning coefficient, and the molecular weight of the chelant. Both are related to the ability of the chelant to penetrate into hair and also form a water soluble copper-chelant complex

The conditions of data set [3]: log of formation constant of complex with copper; cited from earlier work.
Data set [4] in a line: Copper on hair after regimen cycles of shampoo, rinse-off conditioner and leave-on treatment (ICP-OES). To be noted: 20 conditioning shampoo/rinse-off conditioner/leave-on treatment regimen cycles. As for the experimental part: as §1
The following test method is used to assess the ability of the compositions and regimens to remove copper from the hair and to inhibit copper deposition onto the hair. […]
Samples of 100 mg of hair are digested overnight with 2 ml of high purity concentrated nitric acid. […] Copper content of the hair switches is determined by inductively coupled plasma atomic spectroscopy (ICP-OES)). For each leg, 3 different samples are analyzed. […]

In general, Log P refers to the decadic logarithm of the partition coefficient of the neutral form, usually between octanol and water. Low readings indicate a more hydrophilic compound, high ones a more lipophilic compound. The term logP denotes the decadic logarithm of the partition coefficient of the neutral form, usually between octanol and water. A low value points to lower lipophilicity.

The structures appear in SMILES notation. Entries after “also recorded” stand apart in the source; their conditions may differ.

`O=C(O)CN(CCO)CC(=O)O` [N-(2-hydroxyethyl)iminodiacetic acid]: the “reduces copper by” value in data set [1] is recorded as 30%.
On to `CC(O)CN(CCN(CC(C)O)CC(C)O)CCN(CC(C)O)CC(C)O` (stereo not shown) [Pentrol], for which, in data set [2], the “Log P” value is −0.2.
In data set [2], `OCCN(CCO)CCN(CCO)CCN(CCO)CCN(CCO)CCN(CCO)CCO` [Tetraethylenepentaamine-(1-EO)] had a logP of -2.9.
As to `O=C(O)CNCC(=O)O` [iminodiacetic acid], the “reduces copper by” value in data set [1] was determined as 40%.
`NCCNCCNCCNCCN` [2,4-Tetraethylenepentamine]: the logP in data set [2] was -2.7. In addition, in data set [3], the “Log KML Cu” value was 22.8. In addition, in data set [1], the “reduction/removal of copper on hair compared to control shampoo (in words)” value is “more effective treatements” and the “Copper Removing Performance from Shampoo” value came out at 60%.
On to `NCCCNCCCNCCCN` [1,5,9,13-Tetraazatridecane], for which the logP in data set [2] is -2.1. Further, the “Log KML Cu” value in data set [3] was 17.1. In addition, in data set [1], the “Copper Removing Performance from Shampoo” value was found to be 15%.
In turn, `NCCNCCNCCN` [2,3-Triethylenetetramine] came in with a logP in data set [2] of -2.3. Also, the “Log KML Cu” value in data set [3] is 20.1. For the same molecule, in data set [1], the “reduction/removal of copper on hair compared to shampoo without chelant (in words)” value is given as “significant reduction of copper content on hair”, the “reduction/removal of copper on hair compared to control shampoo (in words)” value is “effective removal of copper from hair; also recorded: more effective treatements” and the “Copper Removing Performance from Shampoo” value is recorded as 70%. Also, the “removal of copper from hair compared to control regimen (in words)” value in data set [4] is listed as “effective removal of copper from hair”.
As to `CC(O)CN(CCN(CC(C)O)CC(C)O)CC(C)O` (stereo not shown) [Ethylenedinitrilotetrapropan-2-ol], the log partition coefficient (Log P) in data set [2] is −0.2. Also, the “Log KML Cu” value in data set [3] was 9.8. In data set [1], the “reduction/removal of copper on hair compared to control shampoo (in words)” value is listed as “effective removal of copper from hair” and the “Copper Removing Performance from Shampoo” value is on record as 30%.
As for `NCCN(CCN)CCN` [Tris(2-aminoethyl)amine], the logP in data set [2] is -2.2. Further, the “Log KML Cu” value in data set [3] is 18.8. In data set [1], the “reduction/removal of copper on hair compared to shampoo without chelant (in words)” value is recorded as “effective removal of copper from hair” and the “Copper Removing Performance from Shampoo” value amounted to 45%.
